Key:
[1] = biological target: Jurkat cell lysate proteome (Homo sapiens, UniProt O43924); assay: In-lysate thermal proteome profiling (TPP); conditions: 10 µM, 15 min
Experimental: (§2) Jurkat cells were grown to a density of 1.0–2.5 × 10⁶ cells/ml. A 100 ml aliquot of the suspension was divided equally into two Falcon tubes and chilled on ice for 2 min. Cells were pelleted by centrifugation at 350×g for 3 min at room temperature. After discarding the supernatant, the combined pellet was resuspended in 25 ml of ice-cold PBS buffer. The washing step—centrifugation at 350×g for 2 min at room temperature, followed by supernatant removal—was further repeated twice. Following the final wash, the cell pellet was resuspended in 1.5 ml of PBS containing 0.4% (v/v) NP40 alternative and flash-frozen in liquid nitrogen. […] The resulting lysate was separated by ultracentrifugation at 100,000×g for 20 min at 4 °C (Beckman Coulter Optima MAX-XP, MLA-80 rotor). The supernatant was carefully collected, snap-frozen in liquid nitrogen, and stored at −80 °C for subsequent analysis.
(§3) Protein concentration was quantified using the Bradford protein assay. […] Following incubation, each aliquot was further subdivided into nine 120 µl portions in PCR tubes. […] For analysis, 75 µl of each supernatant was allocated for mass spectrometry-based thermal protein profiling (TPP), while the remaining 25 µl was used for immunoblotting to assess PDEδ levels.
(§4) For mass spectrometric analysis, sample processing was further proceeded with reduction and alkylation, followed by acetone precipitation and tryptic digestion. Each digested aliquot was then labelled with isobaric TMT reagents (Thermo Fisher Scientific, A52047) corresponding to its specific temperature condition from the thermal shift assay.
(§5) Proteins were considered as stabilised or destabilised when, in all three replicates,
(§6) tailed p-values were determined by applying paired t-test comparing AUC of melting curves
(§7) between DMSO-treated and compound-treated conditions, OR
(§8) least ± 10 % (same direction) compared to the DMSO control.

[2] = biological target: Jurkat cell lysate proteome (Homo sapiens, UniProt P37802); assay: In-lysate thermal proteome profiling (TPP)
Experimental: as §2, §3, §4, §5, §6, §7, §8

[3] = biological target: T1, Jurkat cell lysate proteome (Homo sapiens, UniProt Q99523); assay: In-lysate thermal proteome profiling (TPP)
T1 sequence (Q99523 78-831): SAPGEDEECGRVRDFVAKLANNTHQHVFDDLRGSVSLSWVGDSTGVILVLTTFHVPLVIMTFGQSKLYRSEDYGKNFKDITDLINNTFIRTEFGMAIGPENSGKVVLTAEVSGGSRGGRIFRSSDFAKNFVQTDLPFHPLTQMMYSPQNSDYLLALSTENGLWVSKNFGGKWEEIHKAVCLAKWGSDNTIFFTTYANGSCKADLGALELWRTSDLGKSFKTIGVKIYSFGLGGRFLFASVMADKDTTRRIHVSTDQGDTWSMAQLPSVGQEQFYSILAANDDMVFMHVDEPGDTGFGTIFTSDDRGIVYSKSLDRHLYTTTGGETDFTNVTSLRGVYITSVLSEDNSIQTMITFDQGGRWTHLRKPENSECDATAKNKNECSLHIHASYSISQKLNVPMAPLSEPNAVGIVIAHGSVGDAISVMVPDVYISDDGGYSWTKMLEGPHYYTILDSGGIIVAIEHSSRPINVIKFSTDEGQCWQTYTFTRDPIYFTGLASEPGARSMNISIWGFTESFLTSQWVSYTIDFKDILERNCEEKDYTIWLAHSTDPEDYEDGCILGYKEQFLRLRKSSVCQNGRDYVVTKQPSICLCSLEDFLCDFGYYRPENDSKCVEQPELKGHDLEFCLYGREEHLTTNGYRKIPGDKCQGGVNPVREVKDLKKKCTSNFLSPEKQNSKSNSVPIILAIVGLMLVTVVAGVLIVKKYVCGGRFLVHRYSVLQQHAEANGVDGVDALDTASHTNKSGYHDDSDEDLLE
Experimental: as §2, §3, §4, §5, §6, §7, §8

[4] = biological target: T2, Jurkat cell lysate proteome (Homo sapiens, UniProt P22087); assay: In-lysate thermal proteome profiling (TPP)
T2 sequence (P22087 1-321): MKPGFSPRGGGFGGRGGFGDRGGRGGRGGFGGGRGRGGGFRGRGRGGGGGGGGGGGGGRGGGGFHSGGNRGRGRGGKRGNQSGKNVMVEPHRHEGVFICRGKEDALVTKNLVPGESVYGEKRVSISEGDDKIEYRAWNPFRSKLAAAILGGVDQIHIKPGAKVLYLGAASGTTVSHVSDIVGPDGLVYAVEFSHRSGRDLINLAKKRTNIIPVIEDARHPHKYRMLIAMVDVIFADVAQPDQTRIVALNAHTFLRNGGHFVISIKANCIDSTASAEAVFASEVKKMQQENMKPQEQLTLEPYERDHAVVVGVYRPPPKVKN
Experimental: as §2, §3, §4, §5, §6, §7, §8

[5] = biological target: Jurkat cell lysate proteome (Homo sapiens, UniProt P05388); assay: In-lysate thermal proteome profiling (TPP)
Experimental: as §2, §3, §4, §5, §6, §7, §8

[6] = GSH adduct formation (stability in the presence of GSH); assay type: physicochemical; conditions: phosphate buffer with 10 mM GSH; 10-fold excess of GSH at 10 mM, phosphate buffer pH 7.4, 37 °C; read-out: half-life for GSH adduct formation t1/2 GSH (converted)
Experimental: Compound (1 mM) was incubated with the respective buffers (HEPES 20 mM, 150 mM NaCl, pH = 7.5; 0.2 M sodium acetate buffer, pH = 5.6; 0.2 M sodium citrate buffer, pH = 6.2; 0.2 M potassium phosphate buffer, pH = 7.4, 1 mM EDTA, with or without 10 mM GSH), with 1% DMSO adjusted for all conditions. […] Per cent (%) compound remaining in the solution was estimated by the ratio of areas under the curve, and data plotted were fitted to pseudo-1st kinetics in the calculation of rate constants (k) and half-lives (t1/2), where k is the negative slope of a linear regression of In (% compound remaining) over time. Half-lives (t1/2) in respective buffers and half-lives for GSH adduct formation (t1/2 GSH) were calculated with the following equations:1 t1/2=In2/k 2 kGSH=ktotalconsumptioninphosphatebufferinpresenceofGSH−k(phosphatebufferinabsenceofGSH) 3 t1/2GSH=In2/k(GSH) […]
a, Percentage (%) of compound remaining was monitored by HPLC-MS and data was fitted to pseudo-first kinetics in calculation of rate constants (k) and half-lives (t1/2) in respective buffers, where k is the negative slope of a linear regression of In (% compound remaining) over time and t 1/2 = In2/k. Initial […]
Initial GSH concentration =

SW480 cells = assay: Real-time cell analysis (Incucyte) of proliferation; assay type: cell-based, human; conditions: Homo sapiens, 72 h, read-out: cellular IC50
Experimental: (§1) Real-time cell analysis (RTCA) was conducted using an Incucyte S3 live-cell analysis system (Sartorius AG, Germany). […] Following attachment overnight, the medium was replaced with fresh medium containing test compounds, with all conditions adjusted to contain 0.5% DMSO. […] Phase-contrast images (2 images per well) were automatically captured at 2-h intervals until control wells (DMSO-treated) reached full confluency. Cell growth was quantified using the instrument’s integrated Basic Analyser module by applying a confluence mask to calculate the percentage of phase area confluence. […] Dose-response curves were generated and fitted via four-parameter variable slope nonlinear regression to determine cellular IC₅₀ values.

MIA PaCa-2 cells = assay: as above; assay type: cell-based, human
Experimental: as §1

BxPC-3 cells = assay: as above; assay type: cell-based, human; conditions: Homo sapiens, 72 h, read-out: cellular IC50
Experimental: as §1

PA-TU-8902 cells = assay: as above; assay type: cell-based, human
Experimental: as §1

NCI-H358 cells = assay: as above; assay type: cell-based, human; conditions: Homo sapiens, NCI-H358, 72 h, NCI-H358; 72 h; read-out: cellular IC50
Experimental: as §1

Sequence of Jurkat cell lysate proteome (Homo sapiens, UniProt P37802) (P37802 whole entry): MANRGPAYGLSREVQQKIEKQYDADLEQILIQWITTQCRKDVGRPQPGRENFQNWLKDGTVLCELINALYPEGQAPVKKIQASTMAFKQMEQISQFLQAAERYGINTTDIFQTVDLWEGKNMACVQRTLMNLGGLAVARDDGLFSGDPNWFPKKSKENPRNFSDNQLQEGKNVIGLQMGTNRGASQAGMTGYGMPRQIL
Sequence of Jurkat cell lysate proteome (Homo sapiens, UniProt O43924) (O43924 whole entry): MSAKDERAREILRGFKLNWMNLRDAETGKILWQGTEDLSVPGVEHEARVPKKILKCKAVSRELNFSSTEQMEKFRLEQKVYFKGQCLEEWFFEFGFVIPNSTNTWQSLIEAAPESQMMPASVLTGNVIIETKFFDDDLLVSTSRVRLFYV

## Cc1ccc(-n2nc3c(=O)n(CCCCS(=O)(=O)N(CCc4cccc(CCBr)c4)CC4CCNCC4)nc(C)c3c2C)cc1 [6a]
[1]
  ΔI67°C PDE6D: 21 ± 7%
[2]; 10 µM, 15 min
  ΔAUC TAGLN2: 1.4
  ΔI67°C TAGLN2: -5 ± 9%
[2]; read-out: ΔTm TAGLN2, 10 µM, 15 min
  ΔTm at 10 µM: 2.8 ± 0.7 °C
[3]; 10 µM, 15 min
  ΔAUC SORT1: -3.6
  ΔI67°C SORT1: -16 ± 7%
[3]; read-out: ΔTm SORT1, 10 µM, 15 min
  ΔTm at 10 µM: -2.2 ± 2.4 °C
[4]; 10 µM, 15 min
  ΔAUC FBL: -1.8
  ΔI67°C FBL: -1 ± 2%
[4]; read-out: ΔTm FBL, 10 µM, 15 min
  ΔTm at 10 µM: -1.8 ± 1.1 °C
[5]; 10 µM, 15 min
  ΔAUC RPLP0: -2.9
  ΔI67°C RPLP0: -4 ± 5%
[5]; read-out: ΔTm RPLP0, 10 µM, 15 min
  ΔTm at 10 µM: -5.2 ± 2.7 °C
[6]
  half-life at 1 mM: 43.1 days
SW480 cells
  IC50: 18.6 ± 3 µM
MIA PaCa-2 cells; 25 µM
  % Growth rate of MIA PaCa-2 cells: 15%
MIA PaCa-2 cells; 50 µM
  % Growth rate of MIA PaCa-2 cells: 15%
MIA PaCa-2 cells; Homo sapiens, MIA PaCa-2, 72 h, read-out: cellular IC50
  IC50: 7 ± 0.4 µM
MIA PaCa-2 cells; MIA PaCa-2
  difference in cellular potency vs Deltazinone 1: > 7 fold
BxPC-3 cells
  IC50: 20 ± 1.3 µM
PA-TU-8902 cells; 25 µM
  % Growth rate of PA-TU-8902 cells: 16%
PA-TU-8902 cells; 50 µM
  % Growth rate of PA-TU-8902 cells: 26%
PA-TU-8902 cells; Homo sapiens, PaTu 8902, PA-TU-8902, 72 h, read-out: cellular IC50
  IC50: 6.8 ± 0.5 µM
NCI-H358 cells
  IC50: 6.3 ± 3.5 µM

From paper PMC12864978, “Covalent modification of a glutamic acid inspired by HaloTag technology” (Nature Communications, 2026)
